Type in all cases: biochemical
The target in one assay is PKR(wt) (Homo sapiens, UniProt P30613). As to the kind of experiment: Luminescence Assay Protocol (Kinase Glo Plus), PKR(Wt/without FBP). As to conditions: without FBP; for activation at 1.54 µM: compound 1.54 μM, read-out: I - AC50 LUM KGP woFBP % Fold @ 1.54 μM mean; for AC50: gmean, read-out: G - AC50 LUM KGP woFBP AC50 μM gmean; for Emax: highest % fold increase at any concentration, read-out: H - AC50 LUM KGP woFBP MAX % FOLD mean. In short, it runs like this: (§1)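 Enzyme (wt 0.8 nM, R510Q 0.8 nM, G332S 10 nM) was preincubated 30 min at RT with compound and 100 μM PEP in Tris/KCl/MgCl2 buffer, then started with 100 μM ADP, plus 30 μM FBP for G332S. Luminescence was read after 45 min at RT. AC50 came from a four-parameter fit of % fold over DMSO across 42.5 μM–2.2 nM.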
Sequence of PKR(wt) (P30613 whole entry): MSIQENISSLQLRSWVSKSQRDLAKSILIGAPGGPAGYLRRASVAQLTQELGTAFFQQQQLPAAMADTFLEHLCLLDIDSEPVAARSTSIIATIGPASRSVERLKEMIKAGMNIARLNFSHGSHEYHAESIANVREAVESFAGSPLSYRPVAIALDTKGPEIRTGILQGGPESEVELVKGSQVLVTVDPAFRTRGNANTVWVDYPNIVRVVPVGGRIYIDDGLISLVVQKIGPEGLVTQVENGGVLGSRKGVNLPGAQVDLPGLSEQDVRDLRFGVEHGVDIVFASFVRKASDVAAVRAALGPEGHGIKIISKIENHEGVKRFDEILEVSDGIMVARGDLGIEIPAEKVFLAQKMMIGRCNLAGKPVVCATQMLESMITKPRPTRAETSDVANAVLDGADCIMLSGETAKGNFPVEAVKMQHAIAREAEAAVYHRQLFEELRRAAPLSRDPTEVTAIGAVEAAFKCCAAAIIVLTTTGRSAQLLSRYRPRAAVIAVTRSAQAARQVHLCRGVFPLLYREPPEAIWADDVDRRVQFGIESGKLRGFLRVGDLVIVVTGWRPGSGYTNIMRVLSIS
On the technique in general: In Kinase-Glo more light means more ATP remaining.

A further assay addresses PKR(R510Q) (Homo sapiens, UniProt P30613, R510Q). As to the kind of experiment: Luminescence Assay Protocol (Kinase Glo Plus), PKR(R510Q/without FBP). The note with it: PKRR510Q, without FBP; for activation at 1.54 µM: compound 1.54 μM, read-out: F - AC50 LUM KGP woFBP % Fold @ 1.54 μM mean; for AC50: gmean, read-out: D - AC50 LUM KGP woFBP AC50 μM gmean; for Emax: highest % fold increase at any concentration, read-out: E - AC50 LUM KGP woFBP MAX % FOLD mean. An outline of the steps: as §1

Another assay has as its target PKR(G332S) (Homo sapiens, UniProt P30613, G332S). As to the kind of experiment: Luminescence Assay Protocol (Kinase Glo Plus), PKR(G332S/with FBP). The note with it: PKRG332S, with FBP; for activation at 1.54 µM: compound 1.54 μM, read-out: C - AC50 LUM KGP FBP % Fold @ 1.54 μM mean; for AC50: gmean, read-out: A - AC50 LUM KGP FBP AC50 μM gmean; for Emax: highest % fold increase at any concentration, read-out: B - AC50 LUM KGP FBP MAX % FOLD mean. An outline of the steps: as §1

Sequence of PKR(G332S) (P30613 whole entry G332S): as the sequence (P30613 whole entry) above, with G332S counted along it
Sequence of PKR(R510Q) (P30613 whole entry R510Q): as the sequence (P30613 whole entry) above, with R510Q counted along it

The term AC50 denotes the concentration giving half of the maximal activity seen. `CC(C)(CO)C(=O)N1CC2=C(C1)CN(S(=O)(=O)c1ccc3c(c1)NCCO3)C2` [Example 37, 1-(5-((3,4-dihydro-2H-benzo[b][1,4]oxazin-6-yl)sulfonyl)-3,4,5,6-tetrahydropyrrolo[3,4-c]pyrrol-2(1H)-yl)-3-hydroxy-2,2-dimethylpropan-1-one]: at PKR(wt), the activation at 1.54 µM lay in the range of 75 to 250%, the AC50 was in the range of 0.1 to 1 µM and the Emax is 75 to 250%. For the same molecule, on PKR(R510Q), the activation at 1.54 µM was 250 to 500%, the AC50 was ≤ 0.1 µM and the Emax lay in the range of 250 to 500%. At PKR(G332S), the activation at 1.54 µM is 75 to 250%, the AC50 is > 40 µM and the Emax was in the range of 75 to 250%.
Consider `O=C([C@H](CO)c1ccccc1)N1CC2=C(C1)CN(S(=O)(=O)c1ccc3c(c1)NCCO3)C2` [Example 35, (S)-1-(5-((3,4-dihydro-2H-benzo[b][1,4]oxazin-6-yl)sulfonyl)-3,4,5,6-tetrahydropyrrolo[3,4-c]pyrrol-2(1H)-yl)-3-hydroxy-2-phenylpropan-1-one], for which the figures for the activation at 1.54 µM on PKR(wt), at PKR(R510Q) and on PKR(G332S) were 75 to 250%, 250 to 500% and 75 to 250%, respectively. For the same molecule, the half-maximal activity concentration (AC50) at PKR(wt), at PKR(R510Q) and on PKR(G332S) was ≤ 0.1 µM in each case. The Emax on PKR(wt) is 75 to 250%; at PKR(R510Q) it was 250 to 500%; on PKR(G332S), 75 to 250%.
For `O=C([C@H](CO)c1ccccc1)N1CC2=C(C1)CN(S(=O)(=O)c1ccccn1)C2` [Example 51, (2S)-3-hydroxy-2-phenyl-1-[5-(pyridine-2-sulfonyl)-1H,2H,3H,4H,5H,6H-pyrrolo[3,4-c]pyrrol-2-yl]propan-1-one], at PKR(wt), the activation at 1.54 µM lay in the range of 250 to 500%, the AC50 is ≤ 0.1 µM and the Emax was in the range of 250 to 500%. Further, on PKR(R510Q), the activation at 1.54 µM is 250 to 500%, the AC50 is ≤ 0.1 µM and the Emax was in the range of 250 to 500%. On PKR(G332S), the activation at 1.54 µM was 75 to 250%, the AC50 was in the range of 0.1 to 1 µM and the Emax lay in the range of 75 to 250%.
Consider `O=C([C@H]1CCOC1)N1CC2=C(C1)CN(S(=O)(=O)c1ccc(OC(F)F)cc1)C2` [Example 16, (S)-(5-((4-(difluoromethoxy)phenyl)sulfonyl)-3,4,5,6-tetrahydropyrrolo[3,4-c]pyrrol-2(1H)-yl)(tetrahydrofuran-3-yl)methanone], for which, on PKR(wt), the activation at 1.54 µM is 75 to 250%, the AC50 was 0.1 to 1 µM and the Emax fell in the range of 250 to 500%. Besides, on PKR(R510Q), the activation at 1.54 µM fell in the range of 75 to 250%, the concentration at half-maximal activity (AC50) is 1 to 40 µM and the Emax lay within 250 to 500%. Moreover, on PKR(G332S), the activation at 1.54 µM was in the range of 75 to 250%, the AC50 is 0.1 to 1 µM and the Emax lay within 75 to 250%.
As to `CN1CCOc2ccc(S(=O)(=O)N3CC4=C(CN(C(=O)C(CO)c5ccccc5)C4)C3)cc21` (stereo not drawn) [Example 46, 3-hydroxy-1-(5-((4-methyl-3,4-dihydro-2H-benzo[b][1,4]oxazin-6-yl)sulfonyl)-3,4,5,6-tetrahydropyrrolo[3,4-c]pyrrol-2(1H)-yl)-2-phenylpropan-1-one], on PKR(wt), the activation at 1.54 µM lay in the range of 75 to 250%, the AC50 is ≤ 0.1 µM and the Emax was 75 to 250%. Further, on PKR(R510Q), the activation at 1.54 µM lay within 75 to 250%, the concentration at half-maximal activity (AC50) was > 40 µM and the Emax is 75 to 250%. Further, at PKR(G332S), the activation at 1.54 µM was in the range of 75 to 250%, the AC50 was > 40 µM and the Emax was in the range of 75 to 250%.
Turning to `O=C([C@@H]1CCOC1)N1CC2=C(C1)CN(S(=O)(=O)c1ccc3ncsc3c1)C2` [Example 20, (R)-(5-(benzo[d]thiazol-6-ylsulfonyl)-3,4,5,6-tetrahydropyrrolo[3,4-c]pyrrol-2(1H)-yl)(tetrahydrofuran-3-yl)methanone], at PKR(wt), the activation at 1.54 µM was in the range of 75 to 250%, the AC50 was in the range of 0.1 to 1 µM and the Emax lay within 250 to 500%. Besides, on PKR(R510Q), the activation at 1.54 µM is 75 to 250%, the AC50 is 1 to 40 µM and the Emax was 250 to 500%. For the same molecule, at PKR(G332S), the activation at 1.54 µM lay in the range of 75 to 250%, the AC50 lay in the range of 0.1 to 1 µM and the Emax was in the range of 75 to 250%.
For the molecule `C[C@@H](O)[C@@H](C(=O)N1CC2=C(C1)CN(S(=O)(=O)c1ccc(OC(F)F)cc1)C2)c1ccccc1` (racemic) [Example 26, (2S,3R and 2R,3S)-1-(5-((4-(difluoromethoxy)phenyl)sulfonyl)-3,4,5,6-tetrahydropyrrolo[3,4-c]pyrrol-2(1H)-yl)-3-hydroxy-2-phenylbutan-1-one], on PKR(wt), the activation at 1.54 µM is 250 to 500%, the concentration at half-maximal activity (AC50) is ≤ 0.1 µM and the Emax is 250 to 500%. Moreover, at PKR(R510Q), the activation at 1.54 µM was in the range of 250 to 500%, the AC50 is ≤ 0.1 µM and the Emax was 250 to 500%. Moreover, on PKR(G332S), the activation at 1.54 µM is 75 to 250%, the AC50 is ≤ 0.1 µM and the Emax was in the range of 75 to 250%.
